According to patent US20080051464A1, “Protein phosphatase inhibitors” (The Cleveland Clinic Foundation, priority 2006, published 2008):
Values belong to the molecule of their own block, whether it stands above or below them.

Columns and labels:
recombinant SHP-1 = biological target: T1, recombinant SHP-1 (Homo sapiens, UniProt P29350); test: rapid in vitro SHP-1 PTPase assay (DIFMUP substrate); assay type: biochemical; conditions: 1 μg/well; FIG. 12A
T1 construct: Recombinant protein of SHP-1 PTPase catalytic domain was described
T1 sequence (P29350 244-515 limits assumed): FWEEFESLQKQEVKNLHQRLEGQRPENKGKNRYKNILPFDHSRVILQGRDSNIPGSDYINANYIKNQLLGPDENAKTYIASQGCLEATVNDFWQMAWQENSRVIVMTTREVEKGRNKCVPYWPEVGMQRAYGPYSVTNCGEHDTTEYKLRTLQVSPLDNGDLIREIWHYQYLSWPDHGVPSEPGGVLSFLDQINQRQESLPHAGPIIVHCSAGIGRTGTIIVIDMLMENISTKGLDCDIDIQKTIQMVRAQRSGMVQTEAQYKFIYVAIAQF
Method: Recombinant protein of SHP-1 PTPase catalytic domain was described and stored in Tris buffer (25 mM Tris, pH7.5, 1 mM EDTA, 2 μM 2-ME, 25% glycerol) at −80° C. Fluorescence substrate DIFMUP (6,8-difluoro-4 methylumbelliferyl phosphate) was purchased (Molecular Probes). SSG was reported previously (21-23) and stored at 4° C. in darkness prior to use. Human and mouse IFNγ ELISPOT Kit (R & D System), CD4^+ Cell Intracellular IFNγ Detection Kit (BD Bioscience) and CD8^+ Cell Intracellular IFNγ Detection Kit (BD Bioscience) were purchased from commercial sources. Human Jurkat T cell line (26) and murine B16 melanoma cell line (ATCC) were maintained in […] culture medium supplemented with 10% fetal calf serum (FCS). Antibodies against pLck-pY394 (Cell Signaling), pLck-pY505 (Cell Signaling), pZap70 (pY319, BD Biosciences), pSlp76 (pY128, BD Biosciences) and pLat (pY226, BD Biosciences) were purchased from commercial sources.
(§1) A rapid SHP-1 PTPase assay was developed for screening the compounds in a commercial library of 34,000 drug-like small chemicals (Chembridge, Mass.). Briefly, compounds of the library (1 μg/well in 0.21 DMSO) were placed in 96-well plates (Falcon, 353072) and mixed with recombinant SHP-1 protein (0.1 μg/well) in 90 μl of HEPES buffer (50 mM HEPS, pH 7.5, 150 mM NaCl, 1 mM EDTA, 0.2 mM DTT and 0.1 mg/ml BSA). The plates were incubated at room temperature for 10 minutes prior to the addition of fluorescence substrate DIFMUP (40 μM stock in HEPES buffer, 10 μl/well) to initiate PTPase reaction. Upon completion of PTPase reaction at room temperature for 1 hr in darkness, fluorescence signal of individual wells were recorded using a Vector^2 Multilabel Counter (Vector, CA). They were compared to that of control SHP-1 PTPase reaction (˜10,000 units of fluorescence signal) in the absence of any compound (100%) for calculating relative SHP-1 inhibition induced by the compounds after subtracting the background signal (˜500 units of fluorescence signal) of the substrate.
as §1, with “To evaluate their” for “A rapid”, “inhibitory activity,” for “PTPase assay was developed for screening”, “analogs” for “compounds in a commercial library of 34,000 drug-like small chemicals (Chembridge, Mass.). Briefly, compounds of the library”, “0.2 μl” for “0.21”, “aliquot individually to” for “placed in”, “(500” for “(˜500”

SHP-1 and SHP-2 = test: SSG inhibition of recombinant and intracellular SHPs (applicant's earlier studies); conditions: clinically achievable levels
[1] = system: SHP-1 substrate pLck-pY394 in Jurkat T cells; test: induction of pLck-pY394 in Jurkat cells (SDS-PAGE/Western blotting); assay type: cell-based, human
Method: (§2) Jurkat cells in culture medium (3×10^6 cells/ml, 1 ml/tube) were treated with agents for designated times at room temperature. After brief centrifuging in a microfuge (4,000 rpm, 2 min), the cell pellet was lysed on ice for 30 min in 100 μl of cold lysis buffer (1% NP40, 50 mM Tris, pH 7.4, 150 mM NaCl, 20 mM NaF, 0.2 mM Na3VO4 and 1 mM Na3MO4) containing a cocktail of proteinase inhibitors (Sigma, 1 tablet/10 ml). The lysates were cleared by centrifuging (14,000 rpm, 10 min) in a microfuge at 4° C. to remove insoluble parts, mixed with equal volume of 2×SDS-PAGE sample buffer, boiled for 5 min and analyzed (˜3×10^5 cells/well) by SDS-PAGE/Western blotting. Relative intensities of phosphotyrosine bands were quantified through densitometry analysis.
as §2, with “blotting as described previously (23, 24).” for “blotting.”
as §2, with “blotting as described previously (17, 18).” for “blotting.”

B16 melanoma tumors = test: B16 melanoma tumor growth in C57BL/6J mice; assay type: in vivo
Method: Tumor volume (n=5) was measured during the study period and calculated using the formula for a prolate spheroid. Student's t test was used for assessing the significance of tumor volume differences among differential treatment groups. Mouse viability (daily) and body weights (weekly) were also recorded during the study period. Major internal organs of the mice were inspected visually upon their termination at the end of the experiment.
To assess anti-tumor activity, C57BL/6J mice (˜8-week old, female, Taconic Farms, Germantown, N.Y.) were inoculated (s.c.) at the flanks with B16 melanoma cells (4×10^4 cells/site). […] Tumor volume (n=5) was measured during the study period and calculated using the formula for a prolate spheroid. Student's t test was used for assessing the significance of tumor volume differences among differential treatment groups. Mouse viability (daily) and body weights (weekly) were also recorded during the study period. Major internal organs of the mice were inspected visually upon their termination at the end of the experiment.

[2] = system: IFNγ+ cells in mouse splenocytes; test: induction of IFNγ+ cells in mouse splenocytes in vitro (ELISPOT); assay type: cell-based
Method: The splenocytes were cultured in RPMI 1640 medium supplemented with 10% FCS in the absence or presence of designated agents for 16 hrs in flat-bottom 96-well plates coated with a monoclonal antibody specific for mouse IFNγ (mouse IFNγ ELISPOT Kit, R & D System). The plates were then processed for in situ detection of IFNγ+ cells by ELISA following the manufacturer's procedure. Scanning and counting of IFNγ+ cells in the plates were accomplished using an automatic ELISPOT reader with Immunospot2 software (Cellular Technology Ltd). Mouse splenocytes were also untreated or treated with agents for 16 hrs in culture dishes and then stained with appropriate isotype control antibodies or FICT-labeled anti-CD3 monoclonal antibody (BD) plus PE-labeled monoclonal antibody (BD) for intracellular IFNγ following established procedures. The stained samples were washed 3 times, re-suspended in 200 μl of 1% para-formaldehyde solution and analyzed (20,000 cells/sample) using a BD FACS Caliburs cytometer and WinList software.
The splenocytes were cultured in RPMI 1640 medium supplemented with 10% FCS in the absence or presence of designated agents for 16 hrs in flat-bottom 96-well plates coated with a monoclonal antibody specific for mouse IFNγ (mouse IFNγ ELISPOT Kit, R & D System). The plates were then processed for in situ detection of IFNγ+ cells by ELISA following the manufacturer's procedure. Scanning and counting of IFNγ+ cells in the plates were accomplished using an automatic ELISPOT reader with Immunospot2 software (Cellular Technology Ltd).

[3] = system: CD3+ and CD3− IFNγ+ splenocytes; test: spleno-IFNγ+ T cells in B16 tumor mice (flow cytometry); assay type: in vivo, mouse; conditions: 1 mg/kg oral, day 22
Method: Splenocytes from mice untreated or treated with L5a2 were stained with appropriate isotype control antibodies or FICT-labeled anti-CD3 monoclonal antibody (BD) plus PE-labeled monoclonal antibody (BD) for intracellular IFNγ following established procedures. The stained samples were washed 3 times, re-suspended in 200 μl of 1% para-formaldehyde solution and analyzed (20,000 cells/sample) using a BD FACS Caliburs cytometer and FlowJoe software.
To gain further insights into the mechanism of action in L5a2 in vivo, spleens were harvested from the B16 tumor mice in the control and the L5a2-treated groups (FIG. 13A) on day 22 to assess whether L5a2 induced IFNγ+ cells in the tumor-bearing mice. It was also determined whether the induced-IFNγ+ cells were of CD3+ T lymphocytes, which were activated TH1 critical for anti-tumor immunity. Splenocytes were prepared and co-stained for intracellular IFNγ and the T cell surface marker CD3 for quantification of IFNγ+T cells by flow cytometry.

B16 melanoma cells = test: B16 melanoma cell growth in culture (MTT assay); assay type: cell-based, mouse; conditions: 6 days (FIG. 13C)
From the text: L5, L6 and L6 analogs (Chembridge), mouse IFNγ ELISPOT Kit (R & D System) and antibody against pLck-pY394 or pERK1/2 (Cell Signaling) were purchased from commercial sources. Human Jurkat T cell line and murine B16 melanoma cell line (ATCC) and other cancer cell lines were maintained in […] culture medium supplemented with 10% fetal calf serum (FCS). The effects of chemical compounds on cancer cell growth in culture were quantified by MTT assays following our established procedures.

Jurkat cells = test: Jurkat cell apoptosis (Annexin V / 7-AAD, FACS); assay type: cell-based, human; conditions: 16 hrs (FIG. 23)
Method: FIG. 23 illustrates jurkat cells were treated with L6 and analogs in culture for 16 hrs. Cells were then stained for apoptotic marker Annexin V and cell death marker 7-AAD prior to FACS analysis.

MKPs = test: induction of MKPs substrates in Jurkat cells (Western blotting); assay type: cell-based, human
Method: FIG. 22 illustrates selective induction of MKPs substrates by L6 and analogs in Jurkat human leukemic cells. Jurkat cells were treated with the compounds for 30 min in culture prior to quantification of MKPs substrates by SDS-PAGE/Western blotting.

[4] = system: HT-29 human colon cancer cells; test: cytotoxicity of 5FU against HT-29 cells with L6 or analogs (MTT assay); assay type: cell-based; conditions: 5FU 2 μm, 3 days, then 4 days culture (FIG. 24)
Method: FIG. 24 illustrates HT-29 cells were treated with L6 or the analogs in the absence or presence of 5FU (2 μm) for 3 days. After washing, the cells were cultured for 4 days prior to quantification of viable cells by MTT assays.

Structure (SMILES): COc1ccc(C2=CC(=O)C=CC2=O)cc1 [L5a5]
inhibition of phosphatase activity of recombinant SHP-1 (recombinant SHP-1): completely or almost completely inhibited

Structure (SMILES): O.O.O.O.O.O.O.O.O.O=C([O-])[C@@H]1[O][Sb]2([O-])([O][Sb]34([OH])[O][C@H]([C@H](O)CO)[C@H]([O]3)[C@H](C(=O)[O-])[O]4)[O][C@H]([C@H](O)CO)[C@@H]1[O]2.[Na+].[Na+].[Na+] [SSG, Sodium Stibogluconate, reference compound]
level at which recombinant and intracellular SHP-1 and SHP-2 are inhibited (SHP-1 and SHP-2): 10 µg/mL | pLck-pY394 induction ([1]; lower (1 μg/ml) or higher (100 μg/ml) doses): failed

Structure (SMILES): O=C1C=CC(=O)C(c2cccc(Cl)c2)=C1 [L5a2]
growth inhibition of B16 tumors vs control (B16 melanoma tumors; 1 mg/kg body weight daily, Monday-Friday/week, oral gavage): ~75% | survival of treated mice (B16 melanoma tumors; 1 mg/kg daily, oral gavage): survived till the end of the study | inhibition of phosphatase activity of recombinant SHP-1 (recombinant SHP-1): completely or almost completely inhibited | immune cell activation (increase) ([2]; FIG. 11): ~20 fold | increase of CD3+ IFNγ+ cells [3]: ~4.5 fold | increase of CD3− IFNγ+ cells [3]: 1.3 fold | inhibition of B16 melanoma cells in culture (B16 melanoma cells): failed to inhibit B16 melanoma cells in culture

inhibition of phosphatase activity of recombinant SHP-1 (recombinant SHP-1): ~80%
Structure (SMILES): O=C1C=C(c2ccccc2)C(=O)c2ccccc21 [L5a3]

Structure (SMILES): O=C1C=C(c2ccccc2Cl)CC(=O)C1 [L5a10]
inhibition of B16 melanoma tumors in mice (B16 melanoma tumors; preliminary experiment): failed to inhibit B16 melanoma tumors | inhibition of phosphatase activity of recombinant SHP-1 (recombinant SHP-1): ~5% | induction of spleno-IFNγ+ cells (average) ([2]; doses from 1-30 μg/ml): ~2 folds | effect on pLck-pY394 levels ([1]; Jurkat cells, 10 min (FIG. 10)): failed to induce pLck-pY394

Structure (SMILES): O=c1cc(Cl)sn1Cc1ccccc1 [L6a1]
Jurkat cell apoptosis (Jurkat cells): failed to induce apoptosis | MKP predominantly targeted (as indicated by effects on the substrates) (MKPs): inhibited HVH3 | differential effects on MKP substrates (pERK1/2, p38, pJNK) (MKPs; 30 min (FIG. 22), L6 at 1-100 ng/ml): lack of activity to induce pJNK or p-p39 | augmentation of 5FU cytotoxicity against HT-29 cells [4]: not

Structure (SMILES): O=C1C=CC(=O)C(c2ccc(Cl)cc2Cl)=C1 [L5a1]
inhibition of phosphatase activity of recombinant SHP-1 (recombinant SHP-1): completely or almost completely inhibited | effectiveness in inducing pLck-pY394 relative to L5 ([1]; Jurkat cells, 10 min (FIG. 10)): ~50%

Structure (SMILES): CCOc1ccc(C2=CC(=O)C=CC2=O)cc1 [L5a4]
inhibition of phosphatase activity of recombinant SHP-1 (recombinant SHP-1): completely or almost completely inhibited
